Measurements reported in ChEMBL document CHEMBL3751819, “Navigating into the chemical space between MGCD0103 and SAHA: novel histone deacetylase inhibitors as a promising lead” (Medchemcomm, 2015).

Assays:
A549 [1] = test: Antiproliferative activity against human A549 cells assessed as reduction in cell viability after 72 hrs by MTT assay; format: functional, cell-based; conditions: for IC50: A549, 72 h
HeLa [2] = test: Induction of cell cycle arrest in human HeLa cells assessed as accumulation at G2/M phase at 0.5 uM after 24 hrs by propidium iodide staining based flow cytometry (reference value: 0.35 to 0.37%); format: functional
HeLa [3] = test: Induction of cell cycle arrest in human HeLa cells assessed as accumulation at G2/M phase at 2 uM after 24 hrs by propidium iodide staining based flow cytometry (reference value: 0.35 to 0.37%); format: functional
Histone deacetylase 2 = Histone deacetylase 2 (Homo sapiens, UniProt Q92769); test: Inhibition of HDAC2 (unknown origin) using Boc-Lys(acetyl)-AMC as substrate preincubated for 5 mins followed by substrate addition by fluorescence assay
Chain of Histone deacetylase 2 (Q92769 whole entry): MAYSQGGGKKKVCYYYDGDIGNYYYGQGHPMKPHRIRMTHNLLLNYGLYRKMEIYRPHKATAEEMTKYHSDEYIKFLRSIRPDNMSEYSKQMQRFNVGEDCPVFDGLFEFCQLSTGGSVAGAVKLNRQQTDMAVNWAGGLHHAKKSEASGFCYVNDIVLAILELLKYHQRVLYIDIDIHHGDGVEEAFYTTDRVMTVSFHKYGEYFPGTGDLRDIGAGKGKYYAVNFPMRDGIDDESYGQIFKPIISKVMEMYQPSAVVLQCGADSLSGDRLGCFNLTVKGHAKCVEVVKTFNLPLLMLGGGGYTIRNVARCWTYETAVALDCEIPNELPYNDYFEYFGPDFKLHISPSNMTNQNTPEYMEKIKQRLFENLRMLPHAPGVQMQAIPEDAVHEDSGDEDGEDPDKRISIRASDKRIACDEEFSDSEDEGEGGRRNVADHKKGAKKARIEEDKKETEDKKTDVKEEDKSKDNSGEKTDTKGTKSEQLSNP

MCF7 = test: Antiproliferative activity against human MCF7 cells assessed as reduction in cell viability after 24 hrs by MTT assay; format: functional, cell-based; conditions: MCF7, 24 h
HeLa [4] = test: Induction of cell cycle arrest in human HeLa cells assessed as accumulation at G2/M phase at 1 uM after 24 hrs by propidium iodide staining based flow cytometry (reference value: 0.35 to 0.37%); format: functional
HeLa [5] = test: Induction of apoptosis in human HeLa cells assessed as late apoptotic cells at 5 uM after 48 hrs by annexin-V-FITC/propidium iodide staining based flow cytometry (reference value: 9.3%); format: functional
HeLa [6] = test: Antiproliferative activity against human HeLa cells assessed as reduction in cell viability after 24 hrs by MTT assay; format: functional, cell-based
HepG2 = test: Antiproliferative activity against human HepG2 cells assessed as reduction in cell viability after 72 hrs by MTT assay; format: functional, cell-based; conditions: HepG2, 72 h
HeLa [7] = test: Induction of apoptosis in human HeLa cells assessed as viable cells at 1.25 uM after 48 hrs by annexin-V-FITC/propidium iodide staining based flow cytometry (reference value: 88.6%); format: functional; conditions: Homo sapiens, HeLa, 48 h; read-out: Activity
HeLa [8] = test: Induction of apoptosis in human HeLa cells assessed as viable cells at 2.5 uM after 48 hrs by annexin-V-FITC/propidium iodide staining based flow cytometry (reference value: 88.6%); format: functional; conditions: Homo sapiens, HeLa, 48 h; read-out: Activity
[9] = biological target: T1, Protein deacetylase HDAC6 (Homo sapiens, UniProt Q9UBN7); test: Inhibition of HDAC6 (unknown origin) using Boc-Lys(acetyl)-AMC as substrate preincubated for 5 mins followed by substrate addition by fluorescence assay
T1 sequence (Q9UBN7 whole entry): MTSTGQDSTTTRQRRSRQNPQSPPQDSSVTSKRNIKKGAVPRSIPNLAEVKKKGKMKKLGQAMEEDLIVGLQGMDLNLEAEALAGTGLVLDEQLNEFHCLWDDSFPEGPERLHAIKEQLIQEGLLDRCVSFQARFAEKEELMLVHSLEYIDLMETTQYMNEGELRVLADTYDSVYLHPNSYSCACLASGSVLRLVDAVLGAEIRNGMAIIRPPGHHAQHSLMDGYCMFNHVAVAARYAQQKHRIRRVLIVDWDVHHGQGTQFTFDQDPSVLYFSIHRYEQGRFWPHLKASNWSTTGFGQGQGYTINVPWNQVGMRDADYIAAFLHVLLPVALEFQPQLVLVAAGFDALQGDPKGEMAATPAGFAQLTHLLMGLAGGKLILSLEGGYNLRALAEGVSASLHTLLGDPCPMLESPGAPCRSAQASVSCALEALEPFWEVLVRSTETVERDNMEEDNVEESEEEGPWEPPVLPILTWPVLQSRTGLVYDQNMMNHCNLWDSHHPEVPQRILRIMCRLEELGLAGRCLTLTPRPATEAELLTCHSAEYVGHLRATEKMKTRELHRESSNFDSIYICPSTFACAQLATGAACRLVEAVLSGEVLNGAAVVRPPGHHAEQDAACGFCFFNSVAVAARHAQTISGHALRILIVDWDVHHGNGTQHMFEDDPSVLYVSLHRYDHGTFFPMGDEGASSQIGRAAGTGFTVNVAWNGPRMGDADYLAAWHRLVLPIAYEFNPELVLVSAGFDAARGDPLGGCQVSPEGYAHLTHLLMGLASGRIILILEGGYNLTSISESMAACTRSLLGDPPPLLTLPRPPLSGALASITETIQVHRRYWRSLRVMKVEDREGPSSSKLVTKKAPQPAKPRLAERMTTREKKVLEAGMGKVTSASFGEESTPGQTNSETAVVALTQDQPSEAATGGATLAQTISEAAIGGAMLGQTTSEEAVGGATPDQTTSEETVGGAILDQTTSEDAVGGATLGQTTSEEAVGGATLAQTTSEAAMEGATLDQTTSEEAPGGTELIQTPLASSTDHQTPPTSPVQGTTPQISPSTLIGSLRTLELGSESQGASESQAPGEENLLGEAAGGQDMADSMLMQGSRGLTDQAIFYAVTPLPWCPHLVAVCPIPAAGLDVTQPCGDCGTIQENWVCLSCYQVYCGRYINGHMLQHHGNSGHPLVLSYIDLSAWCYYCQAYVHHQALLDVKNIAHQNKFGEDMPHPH

HeLa [10] = test: Induction of cell cycle arrest in human HeLa cells assessed as accumulation at G0/G1 phase at 0.5 uM after 24 hrs by propidium iodide staining based flow cytometry (reference value: 0.5 to 0.52%); format: functional
[11] = Antiproliferative activity against human HCT116 cells assessed as reduction in cell viability after 24 hrs by MTT assay; format: functional, cell-based; conditions: HCT-116, 24 h
A549 [12] = test: Antiproliferative activity against human A549 cells assessed as reduction in cell viability after 48 hrs by MTT assay; format: functional, cell-based; conditions: A549, 48 h
HeLa [13] = test: Induction of cell cycle arrest in human HeLa cells assessed as accumulation at G0/G1 phase at 1 uM after 24 hrs by propidium iodide staining based flow cytometry (reference value: 0.5 to 0.52%); format: functional
HeLa [14] = test: Induction of apoptosis in human HeLa cells assessed as late apoptotic cells at 2.5 uM after 48 hrs by annexin-V-FITC/propidium iodide staining based flow cytometry (reference value: 9.3%); format: functional
HeLa [15] = test: Induction of apoptosis in human HeLa cells assessed as necrotic cells at 5 uM after 48 hrs by annexin-V-FITC/propidium iodide staining based flow cytometry (reference value: 0.693%); format: functional
[16] = Half life in mouse plasma; format: ADME, cell-free
A549 [17] = test: Antiproliferative activity against human A549 cells assessed as reduction in cell viability after 24 hrs by MTT assay; format: functional, cell-based; conditions: A549, 24 h

Row | IC50 (A549 [1]) [µM] | IC50 (Histone deacetylase 2) [µM] | IC50 (MCF7) [µM] | IC50 (HeLa [6]) [µM] | IC50 (HepG2) [µM] | IC50 [9] [µM] | IC50 (A549 [12]) [µM] | half-life [16] [h] | Structure (SMILES) | Activity (A549 [1]) | Activity (HeLa [2]) [%] | Activity (HeLa [3]) [%] | Activity (HeLa [4]) [%] | Activity (HeLa [5]) [%] | viability at 1.25 µM (HeLa [7]) [%] | viability at 2.5 µM (HeLa [8]) [%] | Activity (HeLa [10]) [%] | IC50 [11] [µM] | Activity (HeLa [13]) [%] | Activity (HeLa [14]) [%] | Activity (HeLa [15]) [%] | other results
1 | 4.64 | 0.134 | 46 | 30.7 | 2.96 | 0.078 | 11.9 | 12 | O=C(NO)c1ccc(CNc2nccc(-c3cccnc3)n2)cc1 | Dose-dependent effect | 0.31 | 0.04 | 0.31 | 11.7 | 79.3 | 81.1 | 0.56 | 13.7 | 0.66 | 11.9 | 0.536 | 
2 | 7.99 | 0.187 | 46 | 53.4 | 6.52 | 0.069 | 8.32 | 10 | O=C(/C=C/c1ccc(CNc2nccc(-c3cccnc3)n2)cc1)NO | Dose-dependent effect | 0.3 | 0.09 | 0.29 | 12.4 | 82.6 | 79.6 | 0.58 | 8.28 | 0.64 | 13.2 | 0.858 | IC50 (A549 [17]): 98 µM
